System: local fat
Assay: Clinical trials on hyaluronidase unit dose (efficacy threshold, diffusion range)
Assay type: in vivo
Conditions: per injection
Description: It was ascertained from clinical trials that at the hyaluronidase unit dose of 300 IU to 600 IU, it was possible to ensure adequate fat removing effect while minimizing side effects. It was also shown in clinical trials that at the above dose range, if the injectable composition is administered in a volume of 1 cc containing 300 IU of hyaluronidase, the diameter of the diffusion range is about 1 cm. Thus, with the hyaluronidase dose set at 300 IU to 600 IU, by injecting the composition at a volume of 0.5 to 2 cc depending on the hyaluronidase dose and with an interval of 0.5 to 1.5 cm between injection points, injection at narrow intervals is possible, and consequently, lipolysis occurs evenly. Furthermore, a lifting effect occurs concomitantly where skin resilience is improved by the promotion of collagen production through the stimulation of skin by the injection needle. […] Thus, by administering an injectable composition of the present disclosure having the above compositional ranges, the side effects from drug use are minimized while fat removal over a wide area can be carried out using minimal volumes. It was shown in clinical trials that at a hyaluronidase dose of 300 IU, the diameter of the diffusion range for the injectable composition is about 1 cm. […]

## hyaluronidase
  minimum amount of hyaluronidase exhibiting efficacy: 300 IU
